In patent publication US20050129769A1, “Polymeric articles for carrying therapeutic agents” (priority 2002, published 2005):

Experiments:
[1] = system: chorioallantoic membranes (CAM) of 7-days old chicken embryos incubated with murine mammary carcinoma Cl-66 cells; conditions: 3-day incubation
Description: The chorioallantoic membranes (CAM) of 7-days old chicken embryos were incubated with each 10^5 cells of the murine mammary carcinoma Cl-66 24 hours prior to a 3-day incubation with disks containing either 5 μg of Doxorubicin, 5 μg of Dox equivalent in nanoparticles (14/1/1 IMMA/NOBA/NaA, PEG3400), 5 μg of Dox equivalent in nanoparticles functionalized with cyclic-RGD (14/1/1 IMMA/NOBA/NaA, PEG3400-cRGD), or PBS as a control. Linker attachment to nanoparticles was made as described in Example 31.
After 3 days, CAMs were excised and photographed for analysis.

[2] = system: C-32 cells (human melanoma); experiment: In vitro cytotoxicity, MTT cell proliferation assay; type: cell-based; conditions: 48 hours, free drug
Description: The toxicity of Dox linked to the nanoarticles via the amide bond was tested in an in vitro toxicity assay against C-32 cells (human melanoma).
In a 96-well tissue culture microtiter plate, 10,000 cells of C-32 per well in culture medium were allowed to attach for 2 hours prior to incubation with varying concentrations of Dox-amide nanoarticle, and free Dox. Cells were incubated at 37° C., 5% CO2 in a humidified chamber for 48 hours. Cell proliferation was assayed using the calorimetric MTT kit (CT01, Chemicon, Int.).
The toxicity of Dox linked to the nanoarticles via the hydrazone bond was tested in an in vitro toxicity assay against C-32 cells (human melanoma).
In a 96-well tissue culture microtiter plate, 10,000 cells of C-32 per well in culture medium were allowed to attach for 2 hours prior to incubation with varying concentrations of Dox-hydrazone nanoarticle, and free Dox. Cells were incubated at 37° C., 5% CO2 in a humidified chamber for 48 hours. Cell proliferation was assayed using the calorimetric MTT kit (CT01, Chemicon, Int.).

[3] = system: CL66 murine mammary carcinoma cells
Description: The efficacy and toxicity of nano-article-conjugated doxorubicin (Dox-NP) was compared to doxorubicin (Dox) and a saline control. Dox-NP of composition 14/1/1 IMMA/CiBA/NaA, 5.6 w % Dox were made following procedures described in Example 16.
CL66 murine mammary carcinoma cells were grown to 80-90% confluence in supplemented media, trypsinized for 2 min at 37° C. with 1× trypsin, rinsed with Hank's Balanced Salt Solution (w/out calcium and magnesium) and resuspended at 1×10^6 cell/ml, with 0.1 ml injected into the mammary fat pad of female Balb/C mice.
Lyophilized Dox-NP was reconstituted in sterile PBS at the appropriate concentration and stored at 2-8° C. for at least 1 hour, or overnight. Excipient Dox was diluted in PBS at the appropriate concentrations. 200 μL was injected intravenously through the tail vein of the mice on days 13, 15, and 18 following tumor challenge. Dox was injected at 225 μg/animal, while Dox-NP was injected at a nano-article level sufficient to deliver Dox at 250, 420 and 560 μg/animal.
Tumor volumes were measured superficially in two dimensions. Weight loss (or gain) and survival were recorded.

Structure (SMILES): COc1cccc2c1C(=O)c1c(O)c3c(c(O)c1C2=O)C[C@@](O)(C(=O)CO)C[C@@H]3O[C@H]1C[C@H](N)[C@H](O)[C@H](C)O1 [Doxorubicin]
- reduction of the number of blood vessels / blood vessel distribution around the disk ([1]; disks with 5 μg Dox or Dox equivalent): most effective in reducing the number of blood vessels
- embryos died during treatment ([1]; disks with 5 μg): 3 out of 10
- 50% growth inhibition [2]: 0.8 µg/mL
- survival time ([3]; 225 μg/animal Dox compared with the higher doses of Dox-NP): slightly longer survival time
- toxicity ([3]; 225 μg/animal i.v. on days 13, 15, 18): toxic
